The assay concerns MCF-7DOX (doxorubicin-resistant) cells. The assay is described as follows: Clonogenic assay, MCF-7DOX cells. The class given is cell-based, human. How it is done: The breast cancer cell line MCF-7 (lot HTB-22) was obtained from the American […] (ATCC) and maintained in Dulbecco's H21 medium (MEM) supplemented with 10% Fetal Bovine Serum (FBS) (HyClone, Logan, Utah) in a humidified atmosphere containing 5% CO2 at 37° C. To establish drug resistant cell lines, MCF-7 cells were grown in the presence of either paclitaxel or doxorubicin, beginning at a concentration 1000-fold below that required to kill 50% of the cells (the IC50). The drug concentration was increased 3-fold every two weeks (two passages), with an aliquot of the cells removed for storage in liquid nitrogen before each increase in concentration. Dose escalation continued until all cells died, after which the cells able to tolerate the highest concentration of drug were thawed for subsequent study. In this way, paclitaxel-resistant (MCF-7TAX) and doxorubicin-resistant (MCF-7DOX) cell lines were established. The IC50 for each drug was determined using a clonogenic assay as outlined below. The drug resistant cells were kept in culture in the presence of the maximally tolerated drug dose. Before each experiment, the cell lines were grown for two days in the absence of drug after which fresh medium containing either calphostin C (Sigma Laboratories, Oakville, ON), doxorubicin (Adriamycin PFS®, USP, Mississauga, ON) or paclitaxel (Taxol, Bristol-Myers Squibb, Montreal, QC) was added at the concentrations indicated.
The sensitivity of MCF-7, MCF-7TAX and MCF-7DOX cells to calphostin C, paclitaxel or doxorubicin was determined using a clonogenic assay. Briefly, 2.5×10^5 cells were seeded into 25 cm^2 tissue culture flasks in Dulbecco's H21 medium supplemented with 10% FBS. The cells were allowed to grow overnight, after which the medium was removed and replaced with medium containing varying concentrations of paclitaxel, doxorubicin, or calphostin C (after 2 hours of light exposure to activate the molecule). After 24 hours, the medium (including any floating cells) was transferred to 14 ml screw-capped tubes and centrifuged at 1000 rpm for 10 min. The adherent cells were then released from their flasks by trypsin treatment and suspended in 10 ml of H21 medium. The cell suspension was transferred to the previous tube and all cells harvested by centrifugation. The cell pellet was washed one more time with drug-free medium and resuspended in 300 μl of normal growth medium containing FBS. The cells were then added to 2.7 ml of a methylcellulose solution. The methylcellulose medium was prepared by combining 70 ml of a 2.6% (w/v) methylcellulose solution [Shin-Etsu Chemical Co., Tokyo, Japan] in Iscove's medium (Princess Margaret Hospital, Toronto, ON) with 30 ml of FBS. Three ml syringes equipped with a 16-gauge needle were used for transferring the viscous medium. The mixture was vigorously vortexed for 10 s to ensure an even distribution of cells within the viscous medium. The vortexed samples were then allowed to sit for 30 min to remove air bubbles. A 1.2 ml aliquot of the cell suspension was then transferred to a 6-well plate and the cells allowed to grow until colonies of >50 cells were visible by light microscopy for the various cell lines in the absence of drug. The colonies present in 5 randomly selected fields were then counted by visual inspection.
Calphostin C (Sigma Laboratories, Oakville, ON) was prepared as a 100 μM stock solution in dimethylsulfoxide (Sigma Laboratories, Oakville, ON) and stored at −70° C. in 100 μl aliquots. […]

By IC50 is commonly meant the concentration needed to halve the response being measured. A lower IC50 goes with greater potency.

As to `COc1c(C[C@@H](C)OC(=O)Oc2ccc(O)cc2)c2c3c(C[C@@H](C)OC(=O)c4ccccc4)c(OC)c(=O)c4c(O)cc(OC)c(c5c(OC)cc(O)c(c1=O)c52)c43` [calphostin C], the IC50 (MCF-7DOX cells, 24 h drug, calphostin C light-activated 2 h) was 0.0642 µM. Where the note is “MCF-7DOX vs MCF-7”, the “fold resistance / lower sensitivity compared to MCF-7 cells” value was “approximately 5 fold”.

The values above are taken from patent publication US7371780B2, “Use of calphostin C to treat drug-resistant tumor cells” (priority 2003, dated 2008).
